Target: T1, ERK2 enzyme (Homo sapiens, UniProt P28482)
T1 construct: purchased Life Technologies
Assay: Inhibition assay of ERK (Z'-LYTE kinase assay, Ser/Thr 3 peptide, 100 μM ATP)
Assay type: biochemical
Conditions: in vitro
Description: Example 9: Inhibition Assays of ERK. The inhibition of ERK activity by the compounds disclosed herein was determined using the Z′-LYTE kinase assay kit (Life Technologies) with a Ser/Thr 3 peptide substrate (Life Technologies) according to manufacturer's instructions. […] The IC50 values for the compounds were determined with 3-fold serial dilutions in duplicate. The compounds were first diluted in 1:3 dilutions in 100% DMSO at 100× the desired concentration, and then further diluted (1:25) in 20 mM HEPES buffer (Invitrogen) to make 4× solutions prior to adding to the enzyme solution. The final DMSO concentration in the assay was 1%. Final reaction volume was […] in 384-well plates. Kinase reactions were conducted for 1 hour followed by the assay development reaction (1 hour) in a 384 well plate format (20 μL/well).

T1 sequence (P28482 whole entry): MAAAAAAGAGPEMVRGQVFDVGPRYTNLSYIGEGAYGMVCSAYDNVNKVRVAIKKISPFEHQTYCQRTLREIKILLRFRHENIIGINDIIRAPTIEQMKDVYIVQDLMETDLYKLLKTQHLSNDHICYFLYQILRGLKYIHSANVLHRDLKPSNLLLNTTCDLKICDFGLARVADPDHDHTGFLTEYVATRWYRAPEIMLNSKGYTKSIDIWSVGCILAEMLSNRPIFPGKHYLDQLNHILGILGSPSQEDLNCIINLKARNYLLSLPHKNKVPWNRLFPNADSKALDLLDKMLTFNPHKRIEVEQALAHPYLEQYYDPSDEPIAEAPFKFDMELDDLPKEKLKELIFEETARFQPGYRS

IC50 [nM] | SMILES
< 500 | CC(c1ccccc1)c1cc2cc3c(-c4ccnc(N5CCN(C)CC5)c4)n[nH]c3cc2[nH]c1=O (stereo not drawn) [Compound 318]
< 500 | COc1ncc(-c2n[nH]c3cc4c(cc23)CN([C@@H]2CCCN(Cc3ccc(F)cc3F)C2)C(=O)N4)cn1 [Compound 280]
< 500 | Cc1cc(-c2n[nH]c3cc4c(cc23)CN([C@@H]2CCCN(C(C)c3ccccc3)C2)C(=O)N4)ccn1 (stereo partly drawn) [Compound 154]
< 500 | Cc1cc(-c2n[nH]c3cc4c(cc23)CN(CC2CCCC2)C(=O)N4)ccn1 [Compound 212]
< 500 | Cc1cc(-c2n[nH]c3cc4c(cc23)CN([C@H]2CN(Cc3ccccc3)CC(F)(F)C2)C(=O)N4)ccn1 [Compound 264]
< 500 | Cc1cc(-c2n[nH]c3cc4[nH]c(=O)c(C(C)c5ccc(F)cc5)cc4cc23)ccn1 (stereo not drawn) [Compound 197]
< 500 | Cc1cc(-c2n[nH]c3cc4c(cc23)CN([C@@H]2CCN(CC(F)(F)F)C2)C(=O)N4)cc(C)n1 [Compound 237]
< 500 | Cc1cc(-c2n[nH]c3cc4[nH]c(=O)c([C@H](C)c5ccccc5)cc4cc23)ccn1 [Compound 84]
< 500 | C=C(c1ccccc1)c1cc2cc3c(-c4ccnc(C)c4)n[nH]c3cc2[nH]c1=O [Compound 269]
< 500 | Cc1cc(-c2n[nH]c3cc4c(cc23)CN([C@@H]2CCCN(Cc3cccc(F)c3F)C2)C(=O)N4)ccn1 [Compound 185]
< 500 | CC(c1ccccc1)c1cc2cc3c(NC4CCOCC4)n[nH]c3cc2[nH]c1=O (stereo not drawn) [Compound 338]
< 500 | COc1ccc(-c2n[nH]c3cc4c(cc23)CN([C@@H]2CCCN(Cc3ccc(F)cc3F)C2)C(=O)N4)cn1 [Compound 273]
< 500 | Cc1cc(-c2n[nH]c3cc4c(cc23)CN([C@@H]2CCN(CCc3ccccc3)C2)C(=O)N4)ccn1 [Compound 153]
< 500 | Cc1cc(-c2n[nH]c3cc4c(cc23)CN([C@@H]2CCCN(Cc3csc(C)c3)C2)C(=O)N4)ccn1 [Compound 251]
< 500 | Cc1cc(-c2n[nH]c3cc4c(cc23)CN([C@@H]2CCCN(Cc3ccc(F)c(F)c3)C2)C(=O)N4)ccn1 [Compound 190]
< 500 | COc1ccc(-c2n[nH]c3cc4c(cc23)CN([C@@H]2CCCN(Cc3ccccc3)C2)C(=O)N4)cn1 [Compound 272]
< 500 | [2H]C([2H])(c1ccccc1)N1CCC[C@@H](N2Cc3cc4c(-c5ccnc(C)c5)n[nH]c4cc3NC2=O)C1 [Compound 148]
< 500 | Cc1cc(-c2n[nH]c3cc4c(cc23)CN([C@@H]2CCCN(Cc3ccc(F)c(Cl)c3)C2)C(=O)N4)ccn1 [Compound 134]
< 500 | Cc1cc(-c2n[nH]c3cc4c(cc23)CN(Cc2cc(F)cc(F)c2)C(=O)N4)cc(C)n1 [Compound 225]

IC50 [nM] | SMILES
< 500 | COc1ncc(-c2n[nH]c3cc4c(cc23)CN(Cc2cccc(Cl)c2)C(=O)N4)cn1 [Compound 68]
< 500 | Cc1cc(-c2n[nH]c3cc4c(cc23)CN([C@@H]2CCCN(Cc3c(F)cccc3F)C2)C(=O)N4)ccn1 [Compound 143]
< 500 | COc1cccc(F)c1CN1CCC[C@@H](N2Cc3cc4c(-c5ccnc(C)c5)n[nH]c4cc3NC2=O)C1 [Compound 144]
< 500 | COc1ncc(-c2n[nH]c3cc4c(cc23)CN([C@@H]2CCCN(Cc3ccccc3)C2)C(=O)N4)cn1 [Compound 104]
< 500 | Cc1cc(-c2n[nH]c3cc4c(cc23)CN([C@@H]2CCCN(Cc3ccc(F)cc3F)C2)C(=O)N4)ccn1 [Compound 196]
< 500 | Cn1ccc(-c2n[nH]c3cc4c(cc23)CN([C@@H]2CCCN(Cc3ccc(F)cc3F)C2)C(=O)N4)c1 [Compound 281]
< 500 | Cc1cc(-c2n[nH]c3cc4c(cc23)CN([C@@H]2CN(CC(F)(F)F)C[C@H]2c2ccccc2)C(=O)N4)cc(C)n1 [Compound 339]
< 500 | CC(c1ccccc1)c1cc2cc3c(-c4ccnc(N5CCOCC5)c4)n[nH]c3cc2[nH]c1=O (stereo not drawn) [Compound 325]
< 500 | CCN1C[C@@H](N2Cc3cc4c(-c5ccnc(C)c5)n[nH]c4cc3NC2=O)[C@H](c2ccccc2)C1 (racemic) [Compound 278]
< 500 | Cc1cc(-c2n[nH]c3cc4c(cc23)CN([C@@H]2CCCN(Cc3ccccc3)C2)C(=O)N4)ccn1 [Compound 63]
< 500 | Cc1cc(-c2n[nH]c3cc4c(cc23)CN([C@@H]2CCCN(Cc3cc(F)ccc3F)C2)C(=O)N4)ccn1 [Compound 187]
< 500 | Cc1cc(-c2n[nH]c3cc4c(cc23)CN([C@@H]2CCCN(Cc3cccs3)C2)C(=O)N4)ccn1 [Compound 254]
< 500 | Cc1ncc(-c2n[nH]c3cc4c(cc23)CN([C@@H]2CCCN(Cc3ccc(F)cc3F)C2)C(=O)N4)cn1 [Compound 293]
< 500 | Cc1cc(-c2n[nH]c3cc4c(cc23)CN([C@@H]2CN(C)C[C@H]2c2ccccc2)C(=O)N4)ccn1 (racemic) [Compound 241]
< 500 | O=C1Nc2cc3[nH]nc(-c4ccncc4)c3cc2CN1Cc1cccc(Cl)c1 [Compound 3]
< 500 | O=C1Nc2cc3[nH]nc(-c4ccncc4)c3cc2CN1Cc1ccccc1 [Compound 1]
< 500 | Cc1cc(-c2n[nH]c3cc4c(cc23)CN([C@@H]2CCCN(Cc3ccccc3Cl)C2)C(=O)N4)ccn1 [Compound 158]
< 500 | COc1ncc(-c2n[nH]c3cc4c(cc23)CN([C@@H]2CCCN(Cc3ccccc3F)C2)C(=O)N4)cn1 [Compound 101]

More lines, now with the values behind:

SMILES | IC50 [nM]
CC(c1ccccc1)c1cc2cc3c(-c4cnn(C)c4)n[nH]c3cc2[nH]c1=O (stereo not drawn) [Compound 333] | < 500
Cc1cc(-c2n[nH]c3cc4c(cc23)CN([C@@H]2CCCN(Cc3cccc(Cl)c3)C2)C(=O)N4)ccn1 [Compound 156] | < 500
Cc1ccc(-c2n[nH]c3cc4c(cc23)CN([C@@H]2CCCN(Cc3ccccc3)C2)C(=O)N4)cn1 [Compound 275] | < 500
Cc1cc(-c2n[nH]c3cc4c(cc23)CN(CCNCc2ccccc2)C(=O)N4)ccn1 [Compound 149] | < 500
Cn1cc(-c2n[nH]c3cc4c(cc23)CN([C@@H]2CCCN(Cc3ccccc3)C2)C(=O)N4)cn1 [Compound 285] | < 500
Cc1cc(-c2n[nH]c3cc4c(cc23)CN([C@@H]2CN(C)C[C@H]2c2ccccc2F)C(=O)N4)cc(C)n1 (racemic) [Compound 306] | < 500
Cc1cc(-c2n[nH]c3cc4c(cc23)CN([C@@H]2CN(CC(F)F)C[C@H]2c2ccccc2)C(=O)N4)ccn1 (racemic) [Compound 362] | < 500
Cc1cc(-c2n[nH]c3cc4c(cc23)CN(C2CCCC2)C(=O)N4)cc(C)n1 [Compound 239] | < 500
[2H]c1c([2H])c([2H])c(C([2H])([2H])N2CCC[C@@H](N3Cc4cc5c(-c6ccnc(C)c6)n[nH]c5cc4NC3=O)C2)c([2H])c1[2H] [Compound 165] | < 500
Cc1cc(-c2n[nH]c3cc4c(cc23)CN([C@@H]2CCN(Cc3ccccc3)C2)C(=O)N4)ccn1 [Compound 146] | < 500
COc1cccc(F)c1CN1CC[C@@H](N2Cc3cc4c(-c5ccnc(C)c5)n[nH]c4cc3NC2=O)C1 [Compound 162] | < 500
Cc1cc(-c2n[nH]c3cc4c(cc23)CN(CC2CCCCC2)C(=O)N4)ccn1 [Compound 213] | < 500
Cc1cc(-c2n[nH]c3cc4c(cc23)CN([C@@H]2CN(C(C)C)C[C@H]2c2ccccc2)C(=O)N4)ccn1 (racemic) [Compound 279] | < 500
Cc1cc(-c2n[nH]c3cc4c(cc23)CN([C@@H]2CN(CC(F)(F)F)C[C@H]2c2ccccc2)C(=O)N4)ccn1 [Compound 304] | < 500
Cc1cc(-c2n[nH]c3cc4c(cc23)CN(Cc2cccc(C(F)(F)F)c2)C(=O)N4)ccn1 [Compound 240] | < 500
Cc1cc(-c2n[nH]c3cc4[nH]c(=O)c(C(C)c5ccccc5)cc4cc23)ccn1 (stereo not drawn) [Compound 22] | < 500
Cc1cc(-c2n[nH]c3cc4c(cc23)CN([C@@H]2CCCN(Cc3ccsc3)C2)C(=O)N4)ccn1 [Compound 252] | < 500
COc1cc(-c2n[nH]c3cc4c(cc23)CN([C@@H]2CCCN(Cc3ccccc3)C2)C(=O)N4)ccn1 [Compound 270] | < 500
C[C@H](c1ccccc1)c1cc2cc3c(NC4CCOCC4)n[nH]c3cc2[nH]c1=O [Compound 357] | < 500
COc1ncc(-c2n[nH]c3cc4[nH]c(=O)c(C5CCCN(Cc6ccccc6)C5)cc4cc23)cn1 (stereo not drawn) [Compound 364] | < 500
Cc1cc(-c2n[nH]c3cc4[nH]c(=O)c(C5CCCN(Cc6ccccc6)C5)cc4cc23)ccn1 (stereo not drawn) [Compound 332] | < 500
Cc1cc(-c2n[nH]c3cc4c(cc23)CN([C@@H]2CCCN(CC(F)(F)F)C2)C(=O)N4)cc(C)n1 [Compound 244] | < 500
Cc1cc(-c2n[nH]c3cc4c(cc23)CN([C@@H]2CCCN(Cc3ccc(F)cc3)C2)C(=O)N4)ccn1 [Compound 151] | < 500
CCC(c1ccccc1)c1cc2cc3c(-c4ccnc(C)c4)n[nH]c3cc2[nH]c1=O (stereo not drawn) [Compound 64] | < 500
Cc1ccc(-c2n[nH]c3cc4c(cc23)CN([C@@H]2CCCN(Cc3ccc(F)cc3F)C2)C(=O)N4)cn1 [Compound 284] | < 500
COc1cc(-c2n[nH]c3cc4c(cc23)CN([C@@H]2CCCN(Cc3ccc(F)cc3F)C2)C(=O)N4)ccn1 [Compound 271] | < 500
Cc1cc(-c2n[nH]c3cc4c(cc23)CN(Cc2cccc(Cl)c2)C(=O)N4)ccn1 [Compound 4] | < 500
Cc1cc(-c2n[nH]c3cc4c(cc23)CN([C@@H]2CCCN(Cc3cccc(F)c3)C2)C(=O)N4)ccn1 [Compound 184] | < 500
Cc1cc(-c2n[nH]c3cc4c(cc23)CN([C@@H]2CCN(C(C)C(F)(F)F)C2)C(=O)N4)ccn1 (stereo partly drawn) [Compound 267] | < 500

— US20190192517A1, “TREATMENT OF SQUAMOUS CELL CARCINOMAS WITH INHIBITORS OF ERK” (Kura Oncology, Inc., priority 2016, published 2019)
